Where a name gives a salt, the structure may show the parent alone.
Tests used:
[1] = tested on: Chinese Hamster Ovary (CHO) cells; test: CHO transfection with lipid condensed DNA, beta-galactosidase reporter; format: cell-based; settings: for β-galactosidase in cell extract mUnits per mg protein: CHO cells, Lipid:DNA mass ratio 8:1, pEG/acZ plasmid; for β-galactosidase expression in the CHO cells (in words): lipid condensed DNA versus non-condensed DNA control (undetectable)
Protocol: Plasmid DNA (pEG/acZ) was prepared at concentrations of typically 60 or 120 μg/ml in water. Solutions of lipids according to the invention were prepared in water over a range of concentrations (typically 30 to 960 μg/ml). An equal volume of DNA was added dropwise to a tube containing a solution of the lipids whilst vortexing the tube.
Chinese Hamster Ovary (CHO) cells were seeded in to 24 well plates at 100,000 cells per well 24 h before experiment. Cells were washed once in Optimem™ medium prior to transfection. Wash medium was removed and replaced with 0.5 ml of Optimem™ to which the required amount of lipid condensed DNA was added (typically 1 to 5 μg DNA equivalent). Usually three replicate transfection wells were set up per condensed DNA sample tested. Cells were incubated for a further 34 h at 37° C., 5% CO2 before removal of the complex and additon of 1 ml of fresh medium (Iscoves™ medium: modified DMEM plus glutamate, asparagine, adenosine, guanosine, cytidine, uridine, thymidine and 10% dialysed foetal calf serum). Cells were cultured for a further 48-72 hours before harvesting and assay. Levels of Beta galactosidase reporter gene activity were determined using an enzyme assay system from Promega as follows. Cells were washed twice with I ml of phosphate buffered saline and solubilised in 200 ul of 1× cell lysis buffer. 50 ul of cell extract was incubated with the provided buffer and substrate o-nitrophenyl-β-D-galactopyranoside and the optical density measured spectrophoto-metrically. Levels of β-gal expression were quantitated by reference to the standard curve and related to the amount of protein in the extract (measured using the BCA assay kit from Pierce) to give a final value expressed as mU of β-gal per mg of protein.

[2] = tested on: Plasmid DNA (pEG/acZ); test: Agarose gel electrophoresis of lipid/plasmid DNA complexes (DNA retardation/condensation); format: binding
Protocol: Plasmid DNA (pEG/acZ) was prepared at a concentration of 120 μg/ml in water. A lipid according to the invention [for example the hexamine H18 described in the Example above] was prepared in a range of concentrations such that charge ratios of lipid:DNA of 0.25:1, 1:1, 2:1, 4:1, 8:1 would be obtained (based on the assumption that DNA at 120 μg/ml is equivalent to 0.387 mM of negative charge, and the hexamine H18 for example at 10 mg/ml is equivalent to 36.23 mM of positive charge). An equal volume of DNA was added dropwise to a vortexing tube containing the lipid in water. For DNase treatment, DNase I (FPLCpure, Pharmacia) was added at a concentration of 1 unit/1 μg of DNA and tubes were incubated at 37° C. for 10 minutes. To inhibit further action of DNase, EGTA was added to a final concentration of 25 mM. For pronase treatment, protease XIV (Sigma) was added to samples to a final concentration of 150 μg/ml, and samples incubated for 30 min at 37° C. Complexes were disrupted in 0.5% SDS with incubation at 55° C. for 20 min. Serum treatment involved incubating the samples in the presence of 50% foetal calf serum (final concentration) for 30 min at 37° C. EGTA was added to a final concentration of 50 mM in an attempt to prevent subsequent action of serum-associated nucleases. Finally, all samples were analysed by electrophoresis on 0.8% agarose gels.

[3] = tested on: protease XIV (pronase); test: Pronase treatment of lipid/DNA complexes, plasmid integrity by gel; settings: protease XIV 150 μg/ml, 30 min at 37° C.
Source text: (§1) One of the ultimate goals of current gene therapy research is to develop a delivery system which will remain stable and effective in vivo, since this would remove the need for expensive and time-consuming ex-vivo manipulations. Since intravenous administration offers the possibility of delivery to the largest number of tissue sites, survival of the gene delivery complex in the presence of serum could be an important feature of any effective technology. Many published studies have demonstated the susceptibility of gene delivery complexes to inactivation by serum even at levels as low as 10%. This effect is due, at least in part, to the destabilisation of complexes by a poorly understood mechanism, and this can lead to degradation of the DNA within the complex by serum-associated nucleases. We have therefore formed complexes between the lipids of the invention and plasmid DNA and subjected these to treatment with purified DNase and pronase as well as with 50% foetal calf serum. Integrity of the plasmid DNA was then measured.
(§2) Plasmid DNA (pEG/acZ) was prepared at a concentration of 120 μg/ml in water. […] Finally, all samples were analysed by electrophoresis on 0.8% agarose gels.

[4] = tested on: DNase I; test: DNase treatment of lipid/DNA complexes, plasmid integrity by gel; settings: charge ratio of at least 2:1; DNase I 1 unit/1 μg DNA, 37° C., 10 minutes
Source text: as §1, §2

resistance of lipid/DNA condensates to treatment by pronase [3]	resistance of condensed DNA to treatment by DNase [4]	Structure (SMILES)	β-galactosidase in cell extract mUnits per mg protein [1] [mUnits per mg protein]	β-galactosidase expression in the CHO cells (in words) [1]	mobility of plasmid DNA through gel ([2]; charge ratio of 2:1 (H18:DNA), 0.8% agarose gel)	visibility of plasmid DNA by ethidium bromide fluorescence (DNA fully condensed) ([2]; charge ratios higher than 2:1)
		NCCCCNCC(CCCCCCNC(=O)CCCCCCCCCCCCCCCCCCCCCCCNC(=O)[C@H](O)[C@H](O)[C@H](O)[C@H](O)CO)CNCCCCN (stereo in doubt) [Lipid H3, (trifluoroacetate) salt]	11 ± 4	significant β-galactosidase expression		
resistant	resistant	NCCCNCCCCNCC(CCCCCCNC(=O)CCCCCCCCCCCCCCCCCCCCCCCNC(=O)[C@H](O)[C@@H](O)[C@H](O)[C@H](O)CO)CNCCCCNCCCN (stereo in doubt) [Lipid H18, (trifluoroacetate) salt]	40 ± 9	significant β-galactosidase expression	no DNA entered the gel	no longer visible

Reference: patent publication US7531676B2, “Lipids” (Celltech R & D Limited, priority 1999, dated 2009)
